According to patent publication US12643871B2, “Aryl formamide compound containing chiral sulfur oxide or salt thereof, preparation method, herbicidal composition and use thereof” (Qingdao Kingagroot Chemical Compound Co., Ltd., priority 2019, dated 2026):

Key:
Amaranthus retroflexus = experiment: Weeding effect in post-emergence stage; type: in vivo; settings: 250 g/ha; 2 leaf stage; 15 days after application; fresh weight control rate
Excerpt: (§1) The activity level criteria for harmful plant damage (i.e., growth control rate) are as follows: • Level 5: growth control rate is above 85%; • Level 4: growth control rate is greater than or equal to 60% and less than 85%; • Level 3: growth control rate is greater than or equal to 40% and less than 60%; • Level 2: growth control rate is greater than or equal to 20% and less than 40%; • Level 1: growth control rate is greater than or equal to 5% and less than 20%; • Level 0: growth control rate is less than 5%.
(§2) The above growth control rates are fresh weight control rates.
(§3) Experiment on weeding effect in post-emergence stage: monocotyledonous and dicotyledonous weed seeds (Descurainia sophia, Capsella bursa-pastoris, Galium aparine, Stellaria media, Lithospermum arvense, Rorippa indica, Alopecurus aequalis, Beckmannia syzigachne, Sclerochloa dura, Phleum paniculatum, Bromus japonicus, Aegilops tauschii, Phalaris arundinacea, Amaranthus retroflexus, Chenopodiaceae, Commelina communis, Sonchus arvensis, convolvulus arvensis, Cirsium setosum, Solanum nigrum, Acalypha australis, Digitaria sanguinalis, Echinochloa crusgalli, Setaria viridis, Setaria glauca, Leptochloa chinensis, Monochoria vaginalis, Sagittaria trifolia, Scirpus juncoides, Cyperus rotundus, Cyperus iria, Cyperus difformis, Fimbristylis, Portulaca oleracea, Xanthium sibiricum, Pharbitis nil) and major crop seeds (wheat, corn, rice, soybean, cotton, oilseed rape, millet, sorghum, potato, sesame, ricinus) were placed in plastic pots filled with soil, then covered with 0.5-2 cm of soil, allowed to grow in a good greenhouse environment. After 2 weeks of sowing, the test plants were treated in the 2 leaf stage. The tested compounds of the present invention were respectively dissolved in acetone, then added with Tween 80 and 1.5 liter/ha of emulsifiable concentrate of methyl oleate as synergist, diluted with a certain amount of water to obtain a solution with a certain concentration, and sprayed with a spray tower onto the plants. After the application, the plants were cultured for 15 days in the greenhouse, and then the experimental results of the weeding were counted. The doses of the used compounds were 500, 250, 125, 60, 30, 15 g/ha, and the averages were obtained by repeating for three times.

Echinochloa crusgali = experiment: Weeding effect in post-emergence stage; type: in vivo; settings: 250 g/ha; 2 leaf stage; 15 days after application; fresh weight control rate
Excerpt: as §1, §2, §3

Row | SMILES | weeding effect in post-emergence stage, activity level (growth control rate), Amaranthus retroflexus (Amaranthus retroflexus) | weeding effect in post-emergence stage, activity level (growth control rate), Echinochloa crusgali (Echinochloa crusgali)
1 | C=CC[S@@+]([O-])c1c(S(C)(=O)=O)ccc(C(=O)Nc2nnnn2C)c1C [Compound 516] | 5 (Level 5: growth control rate is above 85%) | 5 (Level 5: growth control rate is above 85%)
2 | CC[S@@+]([O-])c1c(C(F)(F)F)ccc(C(=O)Nc2nocc2C)c1OC [Compound 458] | 5 (Level 5: growth control rate is above 85%) | 5 (Level 5: growth control rate is above 85%)
3 | CCC[S@@+]([O-])c1c(S(C)(=O)=O)ccc(C(=O)Nc2nnc(C)o2)c1C [Compound 492] | 5 (Level 5: growth control rate is above 85%) | 5 (Level 5: growth control rate is above 85%)
4 | CC[S@@+]([O-])c1c(C(F)(F)F)ccc(C(=O)N(C(C)=O)c2nnc(C)o2)c1F [Compound 216] | 5 (Level 5: growth control rate is above 85%) | 5 (Level 5: growth control rate is above 85%)
5 | CC[S@@+]([O-])c1c(C(F)(F)F)ccc(C(=O)Nc2nnc(C(C)C)o2)c1OC [Compound 425] | 5 (Level 5: growth control rate is above 85%) | 5 (Level 5: growth control rate is above 85%)
6 | CCC[S@@+]([O-])c1c(C)ccc(C(=O)Nc2nnc(C)o2)c1C [Compound 482] | 5 (Level 5: growth control rate is above 85%) | 5 (Level 5: growth control rate is above 85%)
7 | Cc1ccc(C(=O)Nc2nnnn2C)c(C)c1[S@+]([O-])CC(F)(F)F [Compound 478] | 5 (Level 5: growth control rate is above 85%) | 5 (Level 5: growth control rate is above 85%)
8 | Cc1nnc(NC(=O)c2ccc(S(C)(=O)=O)c([S@+]([O-])C(C)C)c2C)o1 [Compound 493] | 5 (Level 5: growth control rate is above 85%) | 5 (Level 5: growth control rate is above 85%)
9 | Cc1ccc(C(=O)Nc2nnnn2C)c(C)c1[S@+]([O-])C(C)C [Compound 476] | 5 (Level 5: growth control rate is above 85%) | 5 (Level 5: growth control rate is above 85%)
10 | COc1c(C(=O)Nc2nnc(C)o2)ccc(C(F)(F)F)c1[S@+]([O-])CCc1ccccc1 [Compound 318] | 5 (Level 5: growth control rate is above 85%) | 5 (Level 5: growth control rate is above 85%)
11 | COc1c(C(=O)Nc2nnc(C)o2)ccc(C(F)(F)F)c1[S@+]([O-])CCO[Si](C)(C)C(C)(C)C [Compound 349] | 5 (Level 5: growth control rate is above 85%) | 5 (Level 5: growth control rate is above 85%)
12 | CC[S@@+]([O-])c1c(C(F)(F)F)ccc(C(=O)Nc2ccon2)c1OC [Compound 457] | 5 (Level 5: growth control rate is above 85%) | 5 (Level 5: growth control rate is above 85%)
13 | CCC[S@@+]([O-])c1c(S(C)(=O)=O)ccc(C(=O)Nc2nnnn2C)c1C [Compound 512] | 5 (Level 5: growth control rate is above 85%) | 5 (Level 5: growth control rate is above 85%)
14 | C#CC[S@@+]([O-])c1c(S(C)(=O)=O)ccc(C(=O)Nc2nnnn2C)c1C [Compound 517] | 5 (Level 5: growth control rate is above 85%) | 5 (Level 5: growth control rate is above 85%)
15 | CCCn1nnnc1NC(=O)c1ccc(C(F)(F)F)c([S@+]([O-])CCC)c1F [Compound 383] | 5 (Level 5: growth control rate is above 85%) | 5 (Level 5: growth control rate is above 85%)
16 | Cc1nnc(NC(=O)c2ccc(C)c([S@+]([O-])CC(F)(F)F)c2C)o1 [Compound 485] | 5 (Level 5: growth control rate is above 85%) | 5 (Level 5: growth control rate is above 85%)
17 | Cc1nnc(NC(=O)c2ccc(C(F)(F)F)c([S@+]([O-])CC=O)c2F)o1 [Compound 191] | 5 (Level 5: growth control rate is above 85%) | 5 (Level 5: growth control rate is above 85%)
18 | Cc1nnc(NC(=O)c2ccc(C(F)(F)F)c([S+]([O-])C#N)c2F)o1 (stereo not shown) [Compound 51] | 5 (Level 5: growth control rate is above 85%) | 5 (Level 5: growth control rate is above 85%)
19 | CCCCn1nnnc1NC(=O)c1ccc(C(F)(F)F)c([S@+]([O-])CC)c1OC [Compound 448] | 5 (Level 5: growth control rate is above 85%) | 5 (Level 5: growth control rate is above 85%)
20 | COC(=O)C[S@@+]([O-])c1c(C(F)(F)F)ccc(C(=O)Nc2nnc(C)o2)c1F [Compound 196] | 5 (Level 5: growth control rate is above 85%) | 5 (Level 5: growth control rate is above 85%)
21 | Cc1nnc(NC(=O)c2ccc(C(F)(F)F)c([S+]([O-])[Si](C)(C)C)c2F)o1 (stereo not shown) [Compound 206] | 5 (Level 5: growth control rate is above 85%) | 5 (Level 5: growth control rate is above 85%)
22 | Cc1nnc(NC(=O)c2ccc(C(F)(F)F)c([S@+]([O-])CCC(C)(C)C)c2F)o1 [Compound 13] | 5 (Level 5: growth control rate is above 85%) | 5 (Level 5: growth control rate is above 85%)
23 | Cc1nnc(NC(=O)c2ccc(S(C)(=O)=O)c([S@+]([O-])CCF)c2C)o1 [Compound 499] | 5 (Level 5: growth control rate is above 85%) | 5 (Level 5: growth control rate is above 85%)
24 | Cc1nnc(NC(=O)c2ccc(C(F)(F)F)c([S@@+]([O-])C(=O)c3ccco3)c2F)o1 [Compound 171] | 5 (Level 5: growth control rate is above 85%) | 5 (Level 5: growth control rate is above 85%)
25 | CC[S@@+]([O-])c1c(C)ccc(C(=O)Nc2nnc(C)o2)c1C [Compound 481] | 5 (Level 5: growth control rate is above 85%) | 5 (Level 5: growth control rate is above 85%)
26 | COc1c(C(=O)Nc2nnc(C)o2)ccc(C(F)(F)F)c1[S@+]([O-])CC(C)=O [Compound 351] | 5 (Level 5: growth control rate is above 85%) | 5 (Level 5: growth control rate is above 85%)
27 | Cc1nnc(NC(=O)c2ccc(C(F)(F)F)c([S@+]([O-])CC(=O)OC(C)(C)C)c2F)o1 [Compound 199] | 5 (Level 5: growth control rate is above 85%) | 5 (Level 5: growth control rate is above 85%)
28 | Cc1nnc(NC(=O)c2ccc(C(F)(F)F)c([S@@+]([O-])COC(=O)C(C)(C)C)c2F)o1 [Compound 202] | 5 (Level 5: growth control rate is above 85%) | 5 (Level 5: growth control rate is above 85%)
29 | Cc1c(C(=O)Nc2nnnn2C)ccc(S(C)(=O)=O)c1[S@@+](C)[O-] [Compound 511] | 5 (Level 5: growth control rate is above 85%) | 5 (Level 5: growth control rate is above 85%)
